Our source for the IC50, Number of death and mortality rate values is US20080318949A1, “Pyrazolopyrimidinone Derivatives, Their Preparation And Their Use” (Topharman Shanghai Co., Ltd, priority 2005, published 2008).

For one series, the target named is T1, PDE5 from human platelets (Homo sapiens, UniProt O76074).
T1 construct: from tissue; host or cells: human platelets
The series can be described thus: PDE5 inhibitory activity test (scintillation proximity assay). Format: biochemical. The note with it: PDE5 from human platelets. An excerpt: The PDE5 and PDE3 were isolated form human platelets, while the PDE6 was isolated form bovine retinas. The enzyme inhibitory activity test conducted immediately after the enzymes had been isolated, using a scintillation proximity assay for the direct detection of AMP/GMP by the TRKQ7100 and TRKQ7090 kit. In summary, the effect of PDE inhibitors was investigated by assaying a fixed amount of enzyme in the presence of varying inhibitor concentrations and low substrate. The final assay volume was made up to 100 μl with 10 μl assay buffer (50 mM Tris/HCl PH 7.5, 8.3 mM MgCl2, 1.7 mM EGTA), and water. Reactions were initiated with enzyme, incubate for 30 minutes at 30° C. and terminated with 50 μl yttrium silicate SPA beads suspension containing zinc sulphate. Shook for 20 minutes and settled for 30 minutes in the dark, then counted on a BECKMAN LS6500 MULTI-PURPOSE SCINTILLATION COUNTER. The IC50 value for the compounds according the present invention was calculated according the counts.
According to the above-mentioned method, the inhibitory activities of some compounds of formula IA and IB according to the invention against PDE5 from human platelets were determined.
Background: SPA uses beads or plates that emit light when radiolabelled molecules are held near them.
The IC50 is the midpoint of a concentration-inhibition curve. A higher IC50 goes with weaker potency. For the compound “1-methyl-5-{2-propoxy-5-[[1-ethyl-1-(3-morpholin-1-yl)propyl]amidosulfonyl]phenyl}-3-n-propyl-1,6-dihydro-7H-pyrazolo[4,3-d]pyrimidin-7-one [Example 112]”, inhibition was half-maximal at 12.1 nM (IC50).
Same read-out and setting: in the case of “1-methyl-5-{2-propoxy-5-[bis(3-methoxypropyl)amidosulfonyl]phenyl}-3-n-propyl-1,6-dihydro-7H-pyrazolo[4,3-d]pyrimidin-7-one [Example 103]” it was 5.61 nM; in that of `CCCc1nn(C)c2c(=O)[nH]c(-c3cc(S(=O)(=O)N(CCOC(C)=O)CCN(CC)CC)ccc3OCC)nc12` [Example 12, 1-methyl-5-{2-ethoxy-5-[[1-(2-diethylaminoethyl)-1-(2-acetoxyethyl)]amidosulfonyl]phenyl}-3-n-propyl-1,6-dihydro-7H-pyrazolo[4,3-d]pyrimidin-7-one], 6.98 nM; in that of `CCCc1nn(C)c2c(=O)[nH]c(-c3cc(S(=O)(=O)N(CCO)CCN(CC)CC)ccc3OCC)nc12` [Example 13, 1-methyl-5-{2-ethoxy-5-[1-(2-diethylaminoethyl)-1-(2-hydroxyethyl)amidosulfonyl]phenyl}-3-n-propyl-1,6-dihydro-7H-pyrazolo[4,3-d]pyrimidin-7-one], 7.37 nM.
On the same count and under the same terms, for `CCCOc1ccc(S(=O)(=O)N(CCO)CCN(CC)CC)cc1-c1nc2c(CCC)nn(C)c2c(=O)[nH]1` [Example 14, 1-methyl-5-{2-propoxy-5-[1-(2-diethylaminoethyl)-1-(2-hydroxyethyl)amidosulfonyl]phenyl}-3-n-propyl-l,6-dihydro-7H-pyrazolo[4,3-d]pyrimidin-7-one] the value was 0.862 nM; for `CCCc1nn(C)c2c(=O)[nH]c(-c3cc(S(=O)(=O)N(CCOCCOC(C)=O)CCN(CC)CC)ccc3OCC)nc12` [Example 15, 1-methyl-5-{2-ethoxy-5-[1-(2-diethylaminoethyl)-1-(2-acetoxyethoxyethyl)amidosulfonyl]phenyl}-3-n-propyl-1,6-dihydro-7H-pyrazolo[4,3-d]pyrimidin-7-one], 10.6 nM.
Same read-out and setting: for `CCCc1nn(C)c2c(=O)[nH]c(-c3cc(S(=O)(=O)N(CCOCCO)CCN(CC)CC)ccc3OCC)nc12` [Example 16, 1-methyl-5-{2-ethoxy-5-[1-(2-diethylaminoethyl)-1-(2-hydroxyethoxyethyl)amidosulfonyl]phenyl}-3-n-propyl-1,6-dihydro-7H-pyrazolo[4,3-d]pyrimidin-7-one] the value was 13.4 nM; for `CCCc1nn(C)c2c(=O)[nH]c(-c3cc(S(=O)(=O)N(CC)CCN(CC)CCOC(C)=O)ccc3OCC)nc12` [Example 17], 8.55 nM; for `CCCc1nn(C)c2c(=O)[nH]c(-c3cc(S(=O)(=O)N(CC)CCN(CC)CCO)ccc3OCC)nc12` [Example 18], 6.32 nM.
Take `CCOc1ccc(S(=O)(=O)N(CC)CCN(CC)CCOC(C)=O)cc1-c1nc2c(CC)nn(CC)c2c(=O)[nH]1` [Example 19, 1-ethyl-5-{2-ethoxy-5-{[1-ethyl-1-[2-[1-ethyl-1-(2-acetoxyethyl)]amino]ethyl]amidosulfonyl}phenyl}-3-n-propyl-1,6-dihydro-7H-pyrazolo[4,3-d]pyrimidin-7-one]: inhibition was half-maximal at 4.29 nM (IC50).
`CCCc1nn(C)c2c(=O)[nH]c(-c3cc(S(=O)(=O)N(C)CCN(C)CCOCCOCCOCc4ccccc4)ccc3OCC)nc12` [Example 22, 1-methyl-5-{2-ethoxy-5-{[1-methyl-1-[2-[1-methyl-1-(2-benzyloxyethoxyethoxyethyl)]amino]ethyl]amidosulfonyl}phenyl}-3-n-propyl-1,6-dihydro-7H-pyrazolo[4,3-d]pyrimidin-7-one] showed an IC50 of 0.294 nM.
Still for that read-out and setting: for `CCCOc1ccc(S(=O)(=O)N(C)CCN(C)CCO)cc1-c1nc2c(CCC)nn(C)c2c(=O)[nH]1` [Example 23, 1-methyl-5-{2-propoxy-5-{[1-methyl-1-[2-[1-methyl-1-(2-hydroxyethyl)]amino]ethyl]amidosulfonyl}phenyl}-3-n-propyl-1,6-dihydro-7H-pyrazolo[4,3-d]pyrimidin-7-one] the value was 0.072 nM; for `CCCc1nn(C)c2c(=O)[nH]c(-c3cc(S(=O)(=O)N(CCN4CCOCC4)Cc4ccccc4)ccc3OC)nc12` [Example 26, 1-methyl-5-{2-methoxy-5-[[1-benzyl-1-(2-morpholin-1-yl)ethyl]amidosulfonyl]phenyl}-3-n-propyl-1,6-dihydro-7H-pyrazolo[4,3-d]pyrimidin-7-one], 24.9 nM; for `CCOc1ccc(S(=O)(=O)N(CCN2CCOCC2)Cc2ccccc2)cc1-c1nc2c(CC)nn(C)c2c(=O)[nH]1` [Example 27, 1-methyl-5-{2-ethoxy-5-[[1-benzyl-1-(2-morpholin-1-yl)ethyl]amidosulfonyl]phenyl}-3-ethyl-1,6-diydro-7H-pyrazolo[4,3-d]pyrimidin-7-one], 0.456 nM.
On the same count and under the same terms, in the case of `CCCc1nn(C)c2c(=O)[nH]c(-c3cc(S(=O)(=O)N(CCOCCO)CCN4CCOCC4)ccc3OCC)nc12` [Example 28, 1-methyl-5-{2-ethoxy-5-[[1-(2-hydroxyethoxyethyl)-1-(2-morpholin-1-yl)ethyl]amidosulfonyl]phenyl}-3-n-propyl-1,6-dihydro-7H-pyrazolo[4,3-d]pyrimidin-7-one] it was 0.681 nM.
Still for that read-out and setting: for `CCCc1nn(C)c2c(=O)[nH]c(-c3cc(S(=O)(=O)N(CCO)CCN4CCCCC4)ccc3OCC)nc12` [Example 29, 1-methyl-5-{2-ethoxy-5-[[1-(2-hydroxyethyl)-1-(2-piperidin-1-yl)ethyl]amidosulfonyl]phenyl}-3-n-propyl-1,6-dihydro-7H-pyrazolo[4,3-d]pyrimidin-7-one] the value was 0.31 nM.
Regarding `CCCOc1ccc(S(=O)(=O)N(CCCO)CCCO)cc1-c1nc2c(CCC)nn(C)c2c(=O)[nH]1` [Example 37], the half-inhibitory concentration (IC50) is 4.9 nM.
Same read-out and setting: for `CCCOc1ccc(S(=O)(=O)N(CC)CCN2CCOCC2)cc1-c1nc2c(CCC)nn(C)c2c(=O)[nH]1` [Example 41, 1-methyl-5-{2-propoxy-5-[[1-ethyl-1-(2-morpholin-1-yl)ethyl]amidosulfonyl]phenyl}-3-propyl-1,6-dihydro-7H-pyrazolo[4,3-d]pyrimidin-7-one] the value was 10.5 nM.

In the next series the test system is male KM mouse. The experiment in a line: Acute oral toxicity test. Format: in vivo. The note with it: single oral dose of 3 g/kg, 10 or 11 mice per group. The method, then: In this test male KM mouse weighting 18-22 g were used, and 10 or 11 mouse were assigned randomly to each group. […] The animals were fasted for 12 hours before the administration.
Compound “1-methyl-5-{2-propoxy-5-[[1-ethyl-1-(3-morpholin-1-yl)propyl]amidosulfonyl]phenyl}-3-n-propyl-1,6-dihydro-7H-pyrazolo[4,3-d]pyrimidin-7-one [Example 112]” showed a Number of death of 2 and a mortality rate of 20%.
The corresponding values for “1-methyl-5-{2-propoxy-5-[bis(3-methoxypropyl)amidosulfonyl]phenyl}-3-n-propyl-1,6-dihydro-7H-pyrazolo[4,3-d]pyrimidin-7-one [Example 103]” are 0 and 0%.
